Data taken from ChEMBL document CHEMBL4483862, “Open-source discovery of chemical leads for next-generation chemoprotective antimalarials” (2018).
pIC50: −log10 of the molar value.

System: Plasmodium berghei
Assay: Luciferase/luciferin-expressing antifolate-resistant parasites were used to infect a culture of HepG2 cells that were pre-incubated with compounds. Infected hepatocytes emit light due to the luciferase reaction. Assay results are presented as the percent inhibition of light emission compared to control. […]
Type: functional
Details: sporozoite; for IC90: read-out: LUCIFERASE INFECTION ASSAY - IC90
[1] = read-out: LUCIFERASE INFECTION ASSAY - IC50

| Compound | pIC50 [1] | IC90 [µM] | further results |
| --- | --- | --- | --- |
| O=C(c1ccc(O)cc1)C1CCN(C(=O)c2cccc(N3CCCC3=O)c2)CC1 | < 5.00 | > 10 |  |
| CN(C)C(=O)c1ccc(-c2cnc3cnc(-c4ccccc4Oc4ccccc4)cn23)cc1 |  | 3.65 | pIC50 (PBLUC_HILL_SLOPE 8.03, PBLUC_R_SQUARED 0.291, read-out: LUCIFERASE INFECTION ASSAY - IC50): 5.56 |
| O=C(Nc1ncccc1O)c1ccc(Cn2cccn2)cc1 |  | 3.1 | pIC50 (PBLUC_HILL_SLOPE 2.35, PBLUC_R_SQUARED 0.554, read-out: LUCIFERASE INFECTION ASSAY - IC50): 5.91 |
| Cc1ccc2oc(-c3ccc(C(C)(C)C)cc3)nc2c1 |  | 5.53 | pIC50 (FFLUC_HILL_SLOPE 3.61, FFLUC_R_SQUARED 0.123, HEPG2TOX_HILL_SLOPE 7.09, HEPG2TOX_R_SQUARED 0.0328, PBLUC_HILL_SLOPE 0.728, PBLUC_R_SQUARED 0.843, read-out: LUCIFERASE INFECTION ASSAY - IC50): 6.57 |
| Cc1ccc(C)c(-c2nn(C(C)C(=O)Nc3cc(C)on3)c(=O)c3ccccc23)c1 (stereo unspecified) |  | 3.83 | pIC50 (HEPG2TOX_HILL_SLOPE 5.97, HEPG2TOX_R_SQUARED 0.339, PBLUC_HILL_SLOPE 3.63, PBLUC_R_SQUARED 0.528, read-out: LUCIFERASE INFECTION ASSAY - IC50): 5.68 |
| Clc1ccc(OC2OCCOC2Oc2ccc(Cl)cc2Cc2ccccc2)c(Cc2ccccc2)c1 (stereo unspecified) | < 5.00 | > 10 |  |
| CC(C1CC2CCC1C2)N1C(=O)C(=O)N(CC(=O)Nc2cccc(F)c2)C1=O (stereo unspecified) |  | 3.86 | pIC50 (PBLUC_HILL_SLOPE 16.7, 2.98, PBLUC_R_SQUARED 0.617, 0.740, read-out: LUCIFERASE INFECTION ASSAY - IC50): 5.38 |
| NC(CCc1ccccc1)c1csc(NC(=O)Nc2ccccc2-c2ccccc2)n1 (stereo unspecified) |  | 7.05 | pIC50 (PBLUC_HILL_SLOPE 12.2, PBLUC_R_SQUARED 0.388, read-out: LUCIFERASE INFECTION ASSAY - IC50): 5.23 |
| Cc1ccc2c(Cl)c(C(=O)Nc3nonc3-c3ccccc3)sc2c1 | 5.13 | 8.14 |  |
| O=C(NC1CCN(C(=O)c2ccoc2)CC1)c1cccc2c3c([nH]c12)CCCCC3 |  | > 10 | pIC50 (PBLUC_HILL_SLOPE 15.4, PBLUC_R_SQUARED 0.491, read-out: LUCIFERASE INFECTION ASSAY - IC50): 5.03 |
| CC(C)c1ccc(-c2nnc(NC(=O)CNC(=O)c3cccc(S(=O)(=O)N(C)C)c3)s2)cc1 |  | > 10 | pIC50 (PBLUC_HILL_SLOPE 2.11, PBLUC_R_SQUARED 0.538, read-out: LUCIFERASE INFECTION ASSAY - IC50): 5.27 |
| N#Cc1ccc(-c2cnc3ccc(NCc4ccc(S(N)(=O)=O)cc4)nn23)cc1 |  | 3.66 | pIC50 (HEPG2TOX_HILL_SLOPE 8.58, HEPG2TOX_R_SQUARED 0.551, PBLUC_HILL_SLOPE 11.6, PBLUC_R_SQUARED 0.236, read-out: LUCIFERASE INFECTION ASSAY - IC50): 5.52 |
| COC(=O)c1cc(Br)ccc1NC(=O)CCNC(=O)c1cccc(C)c1 | < 5.00 | > 10 |  |
| CC(=O)Nc1ccc(-c2cnc3ccc(-c4cccc(F)c4)nn23)cc1 |  | 3.53 | pIC50 (HEPG2TOX_HILL_SLOPE 8.87, HEPG2TOX_R_SQUARED 0.791, PBLUC_HILL_SLOPE 12.1, PBLUC_R_SQUARED 0.742, read-out: LUCIFERASE INFECTION ASSAY - IC50): 5.53 |
| O=C(Nc1ccc(OC(F)(F)F)cc1)Nc1ccc(Sc2ccc(Cl)cc2)nc1 |  | > 7.5 | pIC50 (HEPG2TOX_HILL_SLOPE 6.6, HEPG2TOX_R_SQUARED 0.793, PBLUC_HILL_SLOPE 3.54, PBLUC_R_SQUARED 0.066, read-out: LUCIFERASE INFECTION ASSAY - IC50): 5.22 |
| Cc1nn(C)c(Cl)c1C=C(C(=O)NCCc1ccccc1)C(=O)NCCc1ccccc1 | < 5.00 | > 10 |  |
| COC(=O)c1cc(CNC(=O)c2ccccc2O)ccc1OC | < 5.00 | > 10 |  |
| NC(=O)c1ccc(Nc2nc(-c3cccnc3)nc3ccccc23)cc1 |  | > 10 | pIC50 (PBLUC_HILL_SLOPE 4.21, PBLUC_R_SQUARED 0.0982, read-out: LUCIFERASE INFECTION ASSAY - IC50): < 5.00 |
| O=C(Nc1ccc(Cl)c(S(=O)(=O)N2CCCC2)c1)c1[nH]nc2ccccc12 |  | > 10 | pIC50 (HEPG2TOX_HILL_SLOPE 0.202, HEPG2TOX_R_SQUARED 0.183, PBLUC_HILL_SLOPE 12.1, PBLUC_R_SQUARED 0.78, read-out: LUCIFERASE INFECTION ASSAY - IC50): 5.04 |
| CCN(CC)c1ccc(/C=N/Nc2ccc(C)cc2C)c(O)c1 |  | > 10 | pIC50 (FFLUC_HILL_SLOPE 17.2, FFLUC_R_SQUARED 0.349, PBLUC_HILL_SLOPE 3.28, PBLUC_R_SQUARED 0.115, read-out: LUCIFERASE INFECTION ASSAY - IC50): 5.27 |
| N#Cc1ccc(COC(=O)c2ccc(O)cc2)cc1 | < 5.00 | > 10 |  |
| Cc1onc(-c2c(F)cccc2Cl)c1C(=O)ON=C1C2CC3CC(C2)CC1C3 |  | 4.84 | pIC50 (PBLUC_HILL_SLOPE 4.6, PBLUC_R_SQUARED 0.401, read-out: LUCIFERASE INFECTION ASSAY - IC50): 5.52 |

| Compound | pIC50 [1] | IC90 [µM] | further results |
| --- | --- | --- | --- |
| Fc1ccc(/N=c2\scc(-c3ccc4c(c3)OCCO4)n2C2CCCC2)cc1 |  | 1.58 | pIC50 (FFLUC_HILL_SLOPE 15, FFLUC_R_SQUARED 0.34, HEPG2TOX_HILL_SLOPE 7.4, HEPG2TOX_R_SQUARED 0.523, PBLUC_HILL_SLOPE 11.6, PBLUC_R_SQUARED 0.501, read-out: LUCIFERASE INFECTION ASSAY - IC50): 5.88 |
| CCOC(=O)C1CCCN(Cn2nc(-c3ccc(Br)cc3)n(C3CCCCC3)c2=S)C1 (stereo unspecified) |  | > 10 | pIC50 (PBLUC_HILL_SLOPE 2.91, PBLUC_R_SQUARED 0.109, read-out: LUCIFERASE INFECTION ASSAY - IC50): 5.23 |
| CN(C)c1ccc(-c2cnc3cnc(-c4ccc(CO)cc4)cn23)cc1 |  | > 9.58 | pIC50 (HEPG2TOX_HILL_SLOPE 1.55, HEPG2TOX_R_SQUARED 0.978, PBLUC_HILL_SLOPE 1.15, PBLUC_R_SQUARED 0.872, read-out: LUCIFERASE INFECTION ASSAY - IC50): 5.80 |
| CC(C)(C)c1ccc(OCC(=O)N2CCC(C(N)=O)CC2)cc1 | < 4.98 | > 10.4 |  |
| O=C(Cn1ncc(Cl)c(Cl)c1=O)N(CCc1ccccc1)Cc1ccccc1 |  | 6.37 | pIC50 (HEPG2TOX_HILL_SLOPE 33, HEPG2TOX_R_SQUARED 0.912, PBLUC_HILL_SLOPE 70.8, PBLUC_R_SQUARED 0.26, read-out: LUCIFERASE INFECTION ASSAY - IC50): 5.21 |
| COc1ccc(-c2cnc3sc(NCCc4ccncc4)nn23)cn1 | < 5.03 | > 9.36 |  |
| CN(C)c1cccc(-c2cnc3cnc(-c4ccccc4)cn23)c1 | < 4.98 | > 10.5 |  |
| Cc1cc2oc(C(=O)Nc3nonc3-c3ccc(F)cc3)c(C)c2cc1Cl | < 5.07 | > 8.55 |  |
| CCOc1ccc(C(=O)Nc2ccc(N(CC)CC)cc2)cc1Br |  | 3.6 | pIC50 (HEPG2TOX_HILL_SLOPE 11.9, HEPG2TOX_R_SQUARED 0.281, PBLUC_HILL_SLOPE 11.4, PBLUC_R_SQUARED 0.34, read-out: LUCIFERASE INFECTION ASSAY - IC50): 5.53 |
| O=c1c2ccccc2nc(SCc2cn3cc(Cl)ccc3n2)n1-c1ccccc1F |  | > 10 | pIC50 (PBLUC_HILL_SLOPE 16.9, PBLUC_R_SQUARED 0.0163, read-out: LUCIFERASE INFECTION ASSAY - IC50): 5.05 |
| CCN(CC(=O)Nc1cccc(OC)c1)C(=O)C1Cc2ccccc2O1 (stereo unspecified) | < 5.00 | > 10 |  |
| CC(C)=CCn1c2ccc(NC(=O)OCCF)cc2c(=O)n1C | < 4.99 | > 10.3 |  |
| CCCCNC(=O)c1c(NC(=O)c2ccccc2)nc2ccc(C)cn12 |  | 6.8 | pIC50 (FFLUC_HILL_SLOPE 60.4, FFLUC_R_SQUARED 0.28, HEPG2TOX_HILL_SLOPE 6.52, HEPG2TOX_R_SQUARED 0.955, PBLUC_HILL_SLOPE 4.31, PBLUC_R_SQUARED 0.763, read-out: LUCIFERASE INFECTION ASSAY - IC50): 5.39 |
| CCc1cccc2c(C3=CCN(c4ccc([N+](=O)[O-])cn4)CC3)c[nH]c12 |  | > 10 | pIC50 (HEPG2TOX_HILL_SLOPE 2.16, 2.30, HEPG2TOX_R_SQUARED 0.931, 0.732, PBLUC_HILL_SLOPE 2.67, 4.10, PBLUC_R_SQUARED 0.259, 0.404, read-out: LUCIFERASE INFECTION ASSAY - IC50): 5.23 |
| Cc1ccc(-c2nc(C)sc2CC(=O)NC2CCN(C3CC3)C2)cc1 (stereo unspecified) | < 5.00 | > 10 |  |
| Fc1cccc(-c2cn3c(-c4ccc5ncccc5c4)cnc3cn2)c1 |  | 0.986 | pIC50 (HEPG2TOX_HILL_SLOPE 1.51, HEPG2TOX_R_SQUARED 0.947, PBLUC_HILL_SLOPE 2.49, PBLUC_R_SQUARED 0.764, read-out: LUCIFERASE INFECTION ASSAY - IC50): 6.39 |
| COc1ccc(-n2ncc(C(=O)Nc3nc(-c4ccc5ccccc5c4)cs3)c2C(F)(F)F)nn1 |  | 2.93 | pIC50 (HEPG2TOX_HILL_SLOPE 2.25, 10.1, HEPG2TOX_R_SQUARED 0.989, 0.350, PBLUC_HILL_SLOPE 1.53, 1.53, PBLUC_R_SQUARED 0.682, 0.949, read-out: LUCIFERASE INFECTION ASSAY - IC50): 6.16 |
| O=C1CCCN1c1ccc(CNc2ccccc2S(=O)(=O)C(F)(F)F)cc1 |  | > 10 | pIC50 (HEPG2TOX_HILL_SLOPE 0.628, HEPG2TOX_R_SQUARED 0.884, read-out: LUCIFERASE INFECTION ASSAY - IC50): < 5.00 |
| O=C1c2ccccc2C(=O)c2sccc21 [THIOPHENONAPHTHOQUINONE] |  | > 15.4 | pIC50 (PBLUC_HILL_SLOPE 0.947, PBLUC_R_SQUARED 0.583, read-out: LUCIFERASE INFECTION ASSAY - IC50): 5.55 |
| CC(CNC(=O)C1CCN(S(=O)(=O)c2cccs2)CC1)c1nc2ccccc2n1C(F)F (stereo unspecified) | < 5.00 | > 10 |  |
| O=c1cc(CNC(CCCc2ccccc2)c2ccccc2)nc2ccc(Cl)cn12 (stereo unspecified) | < 5.00 | > 10 |  |
